“Also recorded” adds a separate entry of the source.
Tests used:
Format in all cases: cell-based
[1] = tested on: NF-κB target genes (BIRC3, TNFAIP3, IL-8); experiment: qRT-PCR of NF-κB target gene expression in cancer cells
Method: RNA was isolated using an RNeasy kit (Qiagen, Valencia, Calif.). cDNA was generated using the Taqman reverse transcription kit (Applied Biosystems, Foster City, Calif.). qRT-PCR was performed using Sybr Select or Power Sybr green master mix (Applied Biosystems). Samples were plated in triplicate and run on a 7300 or 7500 real time PCR machine (Applied Biosystems), using the indicated primers (Table 2). Target gene expression was normalized to actin, HPRT, or GAPDH. Data are expressed as mean fold change+/−SEM and are representative of at least two independent biological replicates.

[2] = tested on: p65; experiment: Single cell nuclear translocation analysis, HeLa p65-EGFP cells; settings: 1 uM, imaged 18 hours
Method: Hela cells stably expressing EGFP-tagged p65 were imaged for one hour prior to addition of either 1 uM Jak inhibitor 1 or 100 ng/mL TNF, and then for an additional 18 hours. Transmitted light and widefield epifluorescent images were captured at 10 min intervals using a BD Pathway 855 Bioimager with a 20× objective (0.75 NA; Olympus). Imaging was performed in an environmental chamber set to 37θC and 5% CO2. Five fields of view were analyzed per condition and the nuclear translocation of p65-EGFP was manually scored for each cell.

[3] = tested on: NF-κB; experiment: Dual luciferase reporter assay, OVCAR8 cells transfected with NF-κB dependent reporter; settings: 24 hours
Description: (§1) Cells were transfected with firefly luciferase plasmids for STAT3 (m67-Luc) or NF-KB-Luc (Stratagene, Santa Clara, Calif.) and a Renilla luciferase plasmid (Promega, Madison, Wis.). The NF-κB-responsive cell line was generated with an NF-κB-responsive reporter plasmid (catalogue no. 219078; Strategene, La Jolla, Calif., incorporated herein by reference). Cells were also co-transfected with a plasmid expressing Renilla luciferase under a constitutive promoter for normalization (pRL-TK plasmid; Promega; Madison, Wis., incorporated herein by reference). Dual luciferase assays were performed as described (Walker et al., 2007 Oncogene, 26: 224-233, incorporated herein by reference).

[4] = tested on: U266 and OVCAR8 cells; experiment: Quantitation of viable cell number, U266 and OVCAR8 cells, harmine with additional STAT3 inhibitors; settings: U266, 15 μM harmine, 3 μM TG101348; OVCAR8, 15 μM harmine, 5 μM pimozide; 72 hours
Method: (§2) Cells were treated with the indicated drugs in 96 well plates for 48 to 72 hours. Viable cell number was assessed using ATP-dependent bioluminescence (Cell-TiterGlo; Promega). Data are expressed as average+/−SD of at least two replicates, and are representative of at least two separate experiments.

[5] = tested on: STAT3; experiment: STAT3-dependent luciferase reporter counterscreen in STAT3-Luc cells; settings: drug one hour, then IL-6 for 6 hours
Method: (§3) To identify NF-κB inhibitors, the Prestwick Chemical Library, which contains 1120 bioactive compounds, was screened for activity against cells expressing NF-κB-dependent luciferase (Nelson et al., 2008 Blood, 112(13):5095-102). To confirm the specificity of identified compounds, NF-κB-Luc and STAT3-Luc cells were treated with the indicated doses of drug for one hour followed by stimulation with TNF or IL-6 respectively for 6 hours. Luciferase activity was assessed using the Bright-Glo Luciferase Assay system (Promega).

[6] = tested on: p65 and p50 NF-κB subunits; experiment: Cellular fractionation and immunoblot of NF-κB subunits upon TNF stimulation, OVCAR8 cells; settings: 24 hours, then TNF
Method: (§4) Immunoblots were performed as described (Nelson et al., 2008 Blood, 112: 5095-5102). Nuclear and cytoplasmic fractions were isolated using the Nuclear Extract Kit (Active Motif North America, Carlsbad, Calif.). Antibodies were used recognizing phospho-tyrosine STAT3 (9131), PARP (9542), p65 (8242), RelB (4922) (Cell Signaling; Beverly, Mass.); actin (A-5316) and tubulin (T-5168) (Sigma); and STAT3 (sc-482), p50 (sc-7178), and calnexin (sc-11397) (Santa Cruz Biotechnology; Santa Cruz, Calif.).

[7] = tested on: multiple myeloma cells; experiment: Quantitation of viable cell number (Cell-TiterGlo), multiple myeloma cells
Method: as §2

[8] = tested on: NF-κB; experiment: NF-κB-dependent luciferase reporter assay in NF-κB-Luc cells (Prestwick library screen and confirmation); settings: drug 1 hour, then TNF stimulation
Description: as §1, §3

[9] = tested on: p65; experiment: Chromatin immunoprecipitation at NF-κB binding sites of target genes, OVCAR8 cells; settings: harmine pretreatment, TNF 30 minutes
Method: SKBR3 cells stimulated with IL-6 for 30 minutes, OVCAR8 cells treated with harmine for 16 hours and then stimulated with TNF for 30 minutes, or U266 cells treated with Jak inhibitor 1 for 3 hours were analyzed by ChIP. Cross-linking was performed with 1% formaldehyde (0.37% for U266 cells) for 10 min at room temperature, followed by quenching of formaldehyde using 0.125 M glycine. ChIP was performed essentially as described (Nelson et al., 2004 J Biol Chem, 279(52):54724-30). Chromatin was sheared by sonication using a Qsonica Q700 sonicator with a microtip at approximately 75% amplitude. Anti-STAT3 antibody as described above, anti-p65 (Santa Cruz Biotechnology, sc-109), or anti-RNA polymerase II (Santa Cruz Biotechnology, sc-9001) were used. ChIP product was analyzed by qPCR using the following primers: RELB ([…] (SEQ ID NO: 34) and […] (SEQ ID NO: 35)), IL8 ([…] (SEQ ID NO: 36) and […] (SEQ ID NO: 37)), BIRC3 ([…] (SEQ ID NO: 38) and […] (SEQ ID NO: 39)), TNFAIP3 ([…] (SEQ ID NO: 40) and […] (SEQ ID NO: 41)). Data were normalized relative to input and a nonbinding region of the rhodopsin (RHO) gene (Walker et al., 2013 Mol Cell Biol, 33(15):2879-90).

[10] = tested on: INA6 cells; experiment: Apoptosis by PARP cleavage immunoblot, INA6 cells; settings: 24 hours
Method: as §4

[11] = OVCAR8 cells, 24 hours, qRT-PCR

CCN1/C(=C/C(C)=O)Sc2ccc(O)cc21 [INDY]
NF-κB target gene expression [1, 11]: did not inhibit

CC(C)(C)c1nc2c3cc[nH]c(=O)c3c3cc(F)ccc3c2[nH]1 [Jak inhibitor 1]
p65 nuclear translocation [2]: not significantly altered | NF-κB target gene expression (IL-8) ([1]; A498 renal carcinoma cells, 24 hours): enhanced | NF-κB target gene expression ([1]; INA-6 MM cells, 22-24 hours): enhanced | NF-κB target gene expression ([1]; MDA-MB-468 breast cancer cells, 1 μM, 28 hours): enhanced | NF-κB target gene expression [1, 11]: enhanced | NF-κB reporter luciferase activity [3]: enhanced

COc1ccc2c(c1)[nH]c1c(C)nccc12 [harmine]
cell killing in combination with additional STAT3 inhibitors (relative viable cell number) [4]: enhanced killing | STAT3-dependent luciferase activity [5]: little effect; also recorded: not inhibiting | nuclear accumulation of p65 and p50 [6]: no effect | induction of NF-κB target genes induced by Jak inhibitor 1 ([1]; OVCAR8 cells, 24 hours, harmine together with Jak inhibitor 1): completely suppressed | NF-κB target gene expression [1, 11]: reduced; also recorded: inhibited | cell killing in combination with Jak inhibitor 1 (relative viable cell number) ([7]; INA6, 5 μM harmine, 0.25 μM Jak inhibitor 1, 72 hours): synergistic cell killing | viability of multiple myeloma cells (relative viable cell number) ([7]; cells containing activated NF-κB (INA6, U266, MA/11.S), 72 hours): inhibited the viability | NF-κB-dependent luciferase activity (transcriptional activity of NF-κB) [8]: identified as an NF-κB inhibitor | NF-κB-dependent luciferase activity (transcriptional activity of NF-κB) ([8]; listed as Harmine): inhibitor of NF-κB-dependent luciferase; also recorded: inhibited | RNA polymerase II binding at NF-κB target genes (ChIP) [9]: reduced | p65 binding at NF-κB binding sites of target genes (ChIP) [9]: reduced | apoptosis measured by PARP cleavage, combination with Jak inhibitor 1 [10]: enhanced apoptosis

O=C(N/N=C/c1ccc([N+](=O)[O-])o1)c1ccc(O)cc1 [nifuroxazide]
NF-κB target gene expression ([1]; INA-6 MM cells, 22-24 hours): upregulation | NF-κB target gene expression [1, 11]: upregulation

Reference: patent US20210393597A1, “TARGETING THE TRANSCRIPTION FACTOR NF-KB WITH HARMINE” (DANA-FARBER CANCER INSTITUTE, INC., priority 2018, published 2021)
